One data set deals with Neuro2a cells. The data set is described as follows: MTT cytotoxicity assay in Neuro2a cells. The format is cell-based. To be noted: final small molecule concentration of 10 μM. The protocol: 90 μL of Neuro2a cells were plated on clear 96 well plates (Falcon 353072) at 6000 cells per well and given 24 hours to adhere to the plate. Subsequent treatment consisted of PHF samples that were coincubated with or without 100 μM of small molecules for 48 hours at 37° C., with 10 μL applied per well for a final small molecule concentration of 10 μM. After another 24-hour incubation at 37° C., 20 μL of Thiazolyl Blue Tetrazolium Bromide MTT dye (Sigma; 5 mg/mL stock in DPBS) was added to each well and further incubated for 3.5 hours at 37° C. Assay was arrested by replacement of all media with 100% DMSO and transfer to a SpectraMax MF reader. Background 700 nm readings were subtracted from the absorbance readings at 570 nm. Cells treated with 100% DMSO were designated as 0% viable and those treated only with vehicle were designated as 100% viable. Other well readings were normalized to these values.

Data set [1] addresses T1, recombinant alpha-synuclein fibrils (Homo sapiens, UniProt P37840).
T1 construct: made in house; host or cells: E. coli BL21(DE3) Gold
Put plainly: TEM quantification of recombinant alpha-synuclein fibrils. The class given is biochemical. Conditions: 72 hours with compound, 10 micrographs. The protocol:
(§1) Both compounds were incubated with equimolar ratios of recombinant alpha-synuclein fibrils (100 μM:100 μM) for 48 hours at 37° C. in 1×PBS. After incubation, Thioflavin T (ThT), a fluorescent marker of amyloid fibrils, was added to the samples and ThT fluorescence was measured. EGCG was used as a positive control for comparison. […] Next, transmission electron microscopy (EM) was performed for each sample. […] To obtain a quantitative evaluation of fibril reduction, fibrils were first incubated for 72 hours with compound, then 10 micrographs from random grid points were taken for each sample, and the numbers of fibrils per image were counted (FIG. 5c). […] Western blot analysis, staining for alpha-synuclein, was performed for fibril samples incubated with compounds for 48 hours (FIG. 5d). For untreated alpha-synuclein fibrils, we see a prominent band at 14 kDa corresponding with protein monomer. […]
For all transmission electron microscopy (TEM), 6 μL of sample were added onto 400 mesh Formvar Carbon film copper mesh grids (Electron Microscopy Sciences), then incubated for four minutes. […] For quantitation of fibrils, […] TEM images were taken per experimental condition from random points throughout the grid. Fibril counts were manually quantified per image in a blinded fashion. […]

Data set [2] addresses T1, recombinant alpha-synuclein fibrils. The data set is described as follows: Western blot of alpha-synuclein fibrils treated with compound. The class given is biochemical. Conditions: 48 hours with compound. The procedure:
as §1
Samples were loaded onto a NuPAGE 12% Bis-Tris pre-cast protein gel and ran for 35 minutes at 200 V. To transfer protein from the gel to a nitrocellulose membrane an iBLOT2 dry blotting system was used. […] Signal was detected with Pierce ECL Plus Western Blotting Substrate (Cat #32132), and blot was imaged with a Pharos FX Plus Molecular Imager.

Data set [3] addresses T2, MSA brain-derived alpha-synuclein fibrils (Homo sapiens, UniProt P37840).
T2 construct: Extraction of sarkosyl-insoluble alpha-synuclein fibrils from neuropathologically confirmed brain samples of patients diagnosed with MSA; from tissue; host or cells: post-mortem MSA patient brain
The data set is described as follows: EM quantification of MSA brain-derived alpha-synuclein fibrils. The format is biochemical. To be noted: incubated for 3 days, compared to control. The protocol: Post-mortem alpha-synuclein fibrils were extracted and purified from the brain of a patient with MSA. The presence of fibrils in the extract was confirmed by electron microscopy (FIG. 3a). […] As with the recombinant fibrils, we next aimed to quantitatively assess brain-derived fibril disaggregation by EM. Compounds were incubated with MSA fibrils for 3 days, and fibrils were quantified by EM daily, with 10-15 images taken per experimental replicate.
For all transmission electron microscopy (TEM), 6 μL of sample were added onto 400 mesh Formvar Carbon film copper mesh grids (Electron Microscopy Sciences), then incubated for four minutes. 6 μL of 2% uranyl acetate solution was then used to stain the grids. After 2 minutes, excess solution was blotted off and grids were left to dry for a minimum of 30 minutes. TEM images were taken on a Tecnai 12 transmission electron microscope. For quantitation of fibrils, n=20 TEM images were taken per experimental condition from random points throughout the grid. Fibril counts were manually quantified per image in a blinded fashion.
Compounds were incubated quiescently with fibril samples (both recombinant and brain-derived) for 72 hours at 37° C. […]

Consider `Cc1cc(C)c(NC(=O)Cn2nc3c4c(cccc4c2=O)-c2ccccc2-3)c(C)c1` [CNS-11, N-mesityl-2-(3-oxoindeno[1,2,3-de]phthalazin-2(3H)-yl)acetamide], for which the “neuronal cytotoxicity of compound alone” value in the data set on Neuro2a cells is given as “Apart from CNS-11”. In data set [1], the “number of imaged fibrils per EM image” value is reported as “reduction in number of imaged fibrils”. In addition, the “higher molecular weight alpha-synuclein species by Western blot” value in data set [2] is “reduction in the higher molecular weight species”. Moreover, in data set [3], the “average number of imaged MSA fibrils” value is “reduction in average number of imaged fibrils”.

Turning to `Cc1cccc(C)c1NC(=O)Cn1nc(Cc2ccccc2)c2ccccc2c1=O` [CNS-11g, 2-(4-benzyl-1-oxophthalazin-2-yl)-N-(2,6-dimethylphenyl)acetamide], the “number of imaged fibrils per EM image” value in data set [1] is given as “reduction in number of imaged fibrils”. For the same molecule, the “higher molecular weight alpha-synuclein species by Western blot” value in data set [2] is recorded as “reduction in the higher molecular weight species”. For the same molecule, the “average number of imaged MSA fibrils” value in data set [3] was “reduction in average number of imaged fibrils”.

`O=C(O[C@@H]1Cc2c(O)cc(O)cc2O[C@@H]1c1cc(O)c(O)c(O)c1)c1cc(O)c(O)c(O)c1` [EGCG, epigallocatechin gallate]: the “neuronal cytotoxicity of compound alone” value with Neuro2a cells is given as “no significant cytotoxicity”.

Source of the values: US20260021092A1, “STRUCTURE-BASED DESIGN OF A NOVEL CLASS OF DRUGS FOR NEURODEGENERATIVE DISEASE” (The Regents of the University of California, priority 2022, published 2026).
